Laboratory results from paper PMC8809056 (Science (New York, N.y.), 2021).
pEC50: −log10 of the molar value.

These molecules were tested on SARS-CoV-2 (nCoV/Washington/1/2020) (assay: microbe, parasite or virus in culture). Conditions: not given.
Type: cell-based

Compound	Inhibition of SARS-CoV-2 infection when added after infection
Cc1ccc(NC(=O)c2ccc(CN3CCN(C)CC3)cc2)cc1Nc1nc(-c2cccnc2)cs1 [Masitinib]	effective in inhibiting SARS-CoV-2 infection

Same assay, conditions: A549-ACE2 cells

Compound	Inhibition of SARS-CoV-2 infection (in words)
Cc1ccc(NC(=O)c2ccc(CN3CCNCC3)cc2)cc1Nc1nc(-c2cccnc2)cs1 [AB3280]	maintains its antiviral activity
COC(=O)N[C@H](C(=O)N1CCC[C@H]1c1nc(-c2ccc3c(c2)O[C@@H](c2ccccc2)n2c-3cc3cc(-c4c[nH]c([C@@H]5CCCN5C(=O)[C@@H](NC(=O)OC)C(C)C)n4)ccc32)c[nH]1)C(C)C [Elbasvir]	did not inhibit SARS-CoV-2 infection
C[C@@H]1[C@H](O)[C@@H](C)/C=C/C=C/C=C/C=C/C=C/C=C/C=C/[C@H](O[C@@H]2O[C@H](C)[C@@H](O)[C@H](N)[C@@H]2O)C[C@@H]2O[C@](O)(C[C@@H](O)C[C@@H](O)[C@H](O)CC[C@@H](O)C[C@@H](O)CC(=O)O[C@H]1C)C[C@H](O)[C@H]2C(=O)O [Amphotericin B]	did not inhibit SARS-CoV-2 infection

Same assay, conditions: Severe acute respiratory syndrome coronavirus 2, A549-ACE2; read-out: EC50 against SARS-CoV-2 infection

Compound	pEC50
OCCN1CCN(CCC=C2c3ccccc3Sc3ccc(C(F)(F)F)cc32)CC1 [Flupenthixol]	6.12
COc1ccc2cc1Oc1ccc(cc1)C[C@H]1c3c(cc4c(c3Oc3cc5c(cc3OC)CCN(C)[C@@H]5C2)OCO4)CCN1C [Cepharanthine]	7.00
CN1CCCC(n2nc(Cc3ccc(Cl)cc3)c3ccccc3c2=O)CC1 (stereo not drawn) [Azelastine]	5.62
CC(CN(C)C)CN1c2ccccc2CCc2ccccc21 (stereo not drawn) [Trimipramine]	5.82
CCC(CC)COC(=O)[C@H](C)N[P@](=O)(OC[C@H]1O[C@@](C#N)(c2ccc3c(N)ncnn23)[C@H](O)[C@@H]1O)Oc1ccccc1 [Remdesivir]	6.14
Cc1ccc(NC(=O)c2ccc(CN3CC[C@H](N(C)C)C3)c(C(F)(F)F)c2)cc1Nc1nccc(-c2cncnc2)n1 [Bafetinib]	5.66
CS(=O)(=O)CCNCc1ccc(-c2ccc3ncnc(Nc4ccc(OCc5cccc(F)c5)c(Cl)c4)c3c2)o1 [Lapatinib]	5.80

These molecules were tested on SARS-CoV-2 wild-type, B.1.1.7, B.1.351 and P.1 (assay: not given). Conditions: not given.
Type: cell-based

Compound	Viral progeny production
Cc1ccc(NC(=O)c2ccc(CN3CCN(C)CC3)cc2)cc1Nc1nc(-c2cccnc2)cs1 [Masitinib]	dramatically reduced viral progeny production
